Experimental data from US20230039836A1, “AROMATIC SULPHONAMIDES DERIVATIVES THAT INHIBITS PDI A3, THEIR SYNTHESIS AND USE” (Uniwersytet Jagiellonski, priority 2020, published 2023).
≈ marks a conversion by molar mass, not a printed value. Where “and” joins values, the source holds several entries; their conditions need not be identical. Identical values can stand only once. Like-named read-outs stand apart in the source and are kept apart here.

Tests used:
[1] = system: MDA-MB-231; test: Sulforhodamine B antiproliferative assay, 72 h, normal and hypoxia; format: cell-based, human; conditions: Homo sapiens, MDA-MB-231, 72-hour exposition
Description: (§1) Anticancer activity of PDI A1-inhibitors has been also tested in vitro in antiproliferative essay in normoxic and hypoxic conditions as well in estrogen-stimulated cancer cells. In the experiment, cells were seeded on 96-well plates (Sarstedt, Germany) in appropriate culture medium at a density of 10^5 cells/mL 24 h before adding the tested compounds. Cells were treated with each compound in four concentrations in the range 0.1-100 ug/mL. […] After 72 h of compound treatment at 37° C., 5 % CO2 humid atmosphere and in wo different oxygen level conditions: 21% - normal and <1% - hypoxia. In some experiments, the MDA-MB-231 and MCF-7 cells were seeded with or without 200 nM estradiol and after 24 h the tested compounds were added. A previously described sulforhodamine B antiproliferative assay was used with minor modifications (Skehan P et al., 1990). Briefly, cells were fixed with 50 µL/well of 50% (w/v) trichloroacetic acid (Avantor Performance Materials, Gliwice, Poland). After 1 h incubation, plates were washed several times with tap water and 50 µL of 0.4% (w/v) solution of sulforhodamine B (Sigma-Aldrich, Germany) in 1% (v/v) acetic acid (Avantor Performance Materials, Gliwice, Poland) was added to each well. After 30 min incubation at room temperature, unbound dye was washed out with 1% (v/v) acetic acid, whereas bound dye was solubilized with 10 mM unbuffered TRIS (Avantor Performance Materials, Gliwice, Poland) solution. The entire procedure was performed using a BioTek EL-406 washing station (BioTek Instruments, USA). After additional 30 min, absorbance was read using a Biotek Hybrid H4 reader (BioTek Instruments, USA) at 540 nm wavelength. MTT assay was used alternatively for HL-60 cell line and in the experiment in which estrogens are added (specified in the table legend). Absorbance was measured using a Biotek Hybrid H4 reader at 570 nm wavelength for MTT assay.
(§2) Compounds at each concentration were tested in triplicate in a single experiment and each experiment was repeated at least three times independently.
(§3) Results of in vitro antiproliferative effects are shown in Table 3 and Table 4 and are presented as mean IC50 ± SD calculated using the Prolab-3 system based on Cheburator 0.4 software.

[2] = system: MCF-7; test: as above; format: cell-based, human; conditions: Homo sapiens, MCF7, 72-hour exposition
Description: as §1, §2, §3

[3] = system: arterial thrombosis, right common carotid artery; test: Rat model of arterial thrombosis; format: in vivo; conditions: Wistar rats, FIG. 6, dose as low as
Description: To confirm antithrombotic activity of compounds of invention, inhibitors of PDIA1, pharmacological activity of selected compounds was tested in vivo in the rat model of arterial thrombosis . Wistar rats were anaesthetized with pentobarbital (40 mg/kg, i.p.) and placed in a supine position on a heated (37° C.) operating table. Arterial thrombosis was induced by electrical stimulation of the right common carotid artery, as previously described (Kramkowski et al., 2012). Briefly, the anode, a stainless steel L-shaped wire, was inserted under the artery and connected to a constant current generator. The cathode was attached subcutaneously to the hind limb. The artery was stimulated (1 mA) for 10 min. Fifty-five minutes after the beginning of stimulation, the segment of the common carotid artery containing the formed thrombus was dissected and opened lengthwise, and the thrombus was completely removed and air-dried at room temperature for 24 h. Thrombus was then weighed in a blinded manner.

[4] = system: Lewis Lung Carcinoma (LLC); test: Murine model of Lewis Lung Carcinoma; format: in vivo, mice
Description: To confirm anticancer activity of selected compounds of invention, PDI A1-inhibitors in vivo, selected compounds of invention were tested in the murine model of Lewis Lung Carcinoma (LLC). The Lewis Lung Carcinoma (LLC) cell line was obtained from the ATCC collection and was cultured in a humidified atmosphere of 5% CO2 at 37° using Dulbecco’s modified Eagle’s medium (DMEM) that contained 10% bovine serum (Sigma). Female (6-8 weeks old) C57BL/6 mice (purchased from Envigo RMS. BV., Nederland) were acclimated for one week and were fed with animal chow and water ad libitum. The C57BL/6 mice were injected s.c. with 0.5 × 10^5 LLC cells per mice in 100 µL PBS. Compounds were dissolved in DMSO and then 0.9% NaCl (DMSO final concentration 1%) were added. In each treatment group, i.p. injections of 100 µl compound were started on 1 day after tumor inoculation. Control animals injected with equal volume of 0.9% NaCl with 1% DMSO administered in the same schedule as other groups. Tumor larger radius (a) and smaller radius (b) were measured by calipers. The tumor volume (Tv) was calculated according the following formulaTv = V=4 • ab2/3. The mice in control group were sacrificed 17 days after tumor establishment. Tumor tissues were dissected, weighed and frozen in OCT compound.

[5] = system: Caco-2; test: Sulforhodamine B antiproliferative assay, 72 h; format: cell-based, human; conditions: Homo sapiens, Caco-2; normal (21% of oxygen), 72-hour exposition
Description: In the experiment, cells were seeded on 96-well plates (Sarstedt, Germany) in appropriate culture medium at a density of 10^5 cells/mL 24 h before adding the tested compounds. Cells were treated with each compound in four concentrations in the range 0.1-100 ug/mL. […] Briefly, cells were fixed with 50 µL/well of 50% (w/v) trichloroacetic acid (Avantor Performance Materials, Gliwice, Poland). After 1 h incubation, plates were washed several times with tap water and 50 µL of 0.4% (w/v) solution of sulforhodamine B (Sigma-Aldrich, Germany) in 1% (v/v) acetic acid (Avantor Performance Materials, Gliwice, Poland) was added to each well. After 30 min incubation at room temperature, unbound dye was washed out with 1% (v/v) acetic acid, whereas bound dye was solubilized with 10 mM unbuffered TRIS (Avantor Performance Materials, Gliwice, Poland) solution. […] After additional 30 min, absorbance was read using a Biotek Hybrid H4 reader (BioTek Instruments, USA) at 540 nm wavelength.

[6] = system: HT-29; test: Sulforhodamine B antiproliferative assay, 72 h; format: cell-based, human; conditions: Homo sapiens, HT-29; normal (21% of oxygen), 72-hour exposition
Description: as §1, §2, §3

[7] = C57BL/6 mice, LLC s.c., 75 mg/kg i.p., 5 animals
[8] = C57BL/6 mice, LLC s.c., 75 mg/kg i.p., single animals, 75 mg/kg

Structure (SMILES): CCCCc1ccc(S(=O)(=O)N2CC2C(=O)OC)cc1 (stereo not drawn) [Compound C-3257, Methyl 1-(4-butylphenyl)sulfonylaziridine-2-carboxylate]
- IC50 ([1]; hypoxia (<1% of oxygen), read-out: IC50 [µg/ml] MDA-MB-231 hypoxia): 13.5 ± 4 µg/mL (≈ 45.4 µM)
- IC50 ([1]; normal (21% of oxygen), read-out: IC50 [µg/ml] MDA-MB-231 normal): 9.9 ± 2.8 µg/mL (≈ 33.3 µM)
- IC50 ([2]; hypoxia (<1% of oxygen), read-out: IC50 [µg/ml] MCF-7 hypoxia): 17.1 ± 7.4 µg/mL (≈ 57.5 µM)
- IC50 ([2]; normal (21% of oxygen), read-out: IC50 [µg/ml] MCF-7 normal): 20.8 ± 6.6 µg/mL (≈ 69.9 µM)
- Dose at which effect on thrombus formation was significant and pronounced [3]: 0.03 µmol/kg
- Tumor volume average±stdev, day 10 [4, 7]: 66±147 mm3
- Tumor volume average±stdev, day 12 [4, 7]: 208±287 mm3
- Tumor volume average±stdev, day 14 [4, 7]: 462±264 mm3
- Tumor volume average±stdev, day 16 [4, 7]: 686±108 mm3
- Tumor volume average±stdev, day 17 [4, 7]: 1097±482 mm3
- Individual tumor volumes, day 10 [4, 8]: 0 mm3 (4×) and 329 mm3
- Individual tumor volumes, day 12 [4, 8]: 572 mm3 and 0 mm3 (3×) and 468 mm3
- Individual tumor volumes, day 14 [4, 8]: 594 mm3 and 0 mm3 and 537 mm3 and 657 mm3 and 523 mm3
- Individual tumor volumes, day 16 [4, 8]: 794 mm3 and 548 mm3 and 601 mm3 and 772 mm3 and 717 mm3
- Individual tumor volumes, day 17 [4, 8]: 674 mm3 and 882 mm3 and 1016 mm3 (2×) and 986 mm3
- Anti-cancer activity in vivo ([4]; LLC model, Tables 6 and 7): possess anti-cancer activity in vivo
- IC50 [5]: 9.8 ± 3.8 µg/mL (≈ 33 µM)
- IC50 [6]: 23.8 ± 4.8 µg/mL (≈ 80 µM)
